Patent US6933298B2, “Pyridine-2,4-dicarboxylic acid diamides and pyrimidine-4,6-dicarboxylic acid diamides and the use thereof for selectively inhibiting collagenases” (Aventis Pharma Deutschland GmbH, priority 2001, dated 2005)

Molecular target: T1, catalytic domain of human collagenase-3 (MMP-13) (Homo sapiens, UniProt P45452)
T1 construct: Determining the enzymic activity of the catalytic domain of human collagenase-3 (MMP-13); purchased INVITEK, Berlin 30 100 803
Experiment: Enzymic activity of the catalytic domain of human collagenase-3 (MMP-13), fluorogenic substrate
Type: biochemical
Details: activated with APMA, pH 7.5, read-out: IC50 MMP13
Protocol: Determining the enzymic activity of the catalytic domain of human collagenase-3 (MMP-13).
Activation of the proenzyme:
2 parts by volume of proenzyme are incubated with 1 part by volume of APMA solution at 37° C. for 1.5 hours. The APMA solution is prepared from a 10 mmol/l solution of p-aminophenylmercuric acetate in 0.1 mmol/l NaOH by diluting it with 3 parts by volume of Tris/HCl buffer, pH 7.5 (see below). The pH is adjusted to between 7.0 and 7.5 by adding 1 mmol/l HCl.
In order to measure the enzyme activity, 10 μl of enzyme solution are incubated for 15 minutes with 10 μl of a buffered 3% (v/v) solution of dimethyl sulfoxide (reaction 1). In order to measure the enzyme inhibitor activity, 10 μl of enzyme solution are incubated with 10 μl of a buffered 3% (v/v) solution of dimethyl sulfoxide which contains the enzyme inhibitor (reaction 2).
The enzyme activity is presented as increase in extinction/minute.
The buffer solution contains 0.05% Brij (Sigma, Deisenhofen, Germany) and also 0.1 mol of Tris/HCl/l, 0.1 mol of NaCl/1 and 0.01 mol of CaCl2/l (pH=7.5).
The substrate solution contains 0.75 mmol of the fluorogenic substrate (7-methoxycoumarin-4-yl)acetyl-Pro-Leu-Gly-Leu-3-(2′,4′-dinitrophenyl)-L-2,3-diaminopropionyl-Ala-Arg-NH2/I(Bachem, Heidelberg, Germany).

Compound	IC50
O=C(NCc1ccc(F)c(Cl)c1)c1cc(C(=O)NCc2ccc(F)c(Cl)c2)ncn1 [Example 2, Pyrimidine-4,6-dicarboxylic acid bis(3-chloro-4-fluorobenzylamide)]	23 nM
O=C(NCc1ccc(Cl)cc1)c1cc(C(=O)NCc2ccc(Cl)cc2)ncn1 [Example 3]	5600 nM
O=C(NCc1ccccc1)c1ccnc(C(=O)NCc2ccccc2)c1 [Example 4]	3400 nM
Cc1ccc(CNC(=O)c2cc(C(=O)NCc3ccc(C)cc3)ncn2)cc1 [Example 5]	2000 nM
O=C(NCc1cccc(OC(F)(F)F)c1)c1cc(C(=O)NCc2cccc(OC(F)(F)F)c2)ncn1 [Example 6]	700 nM
O=C(NCc1ccc(F)cc1)c1ccnc(C(=O)NCc2ccc(F)cc2)c1 [Example 7]	620 nM
Cc1cccc(CNC(=O)c2ccnc(C(=O)NCc3cccc(C)c3)c2)c1 [Example 8]	400 nM
COc1ccc(CNC(=O)c2ccnc(C(=O)NCc3ccc(OC)cc3)c2)cc1 [Example 9]	320 nM
O=C(NCc1cc(F)cc(F)c1)c1cc(C(=O)NCc2cc(F)cc(F)c2)ncn1 [Example 10]	300 nM
O=C(NCc1cccc(C(F)(F)F)c1)c1cc(C(=O)NCc2cccc(C(F)(F)F)c2)ncn1 [Example 11]	300 nM
O=C(NCc1cccc(Cl)c1)c1ccnc(C(=O)NCc2cccc(Cl)c2)c1 [Example 12]	260 nM
O=C(NCc1ccc(F)c(C(F)(F)F)c1)c1cc(C(=O)NCc2ccc(F)c(C(F)(F)F)c2)ncn1 [Example 13]	210 nM
O=C(NCc1cccc(F)c1)c1cc(C(=O)NCc2cccc(F)c2)ncn1 [Example 14]	200 nM
O=C(NCc1ccc(F)cc1)c1cc(C(=O)NCc2ccc(F)cc2)ncn1 [Example 15]	190 nM
O=C(NCc1ccc(F)c(F)c1)c1cc(C(=O)NCc2ccc(F)c(F)c2)ncn1 [Example 16]	105 nM
COc1ccc(CNC(=O)c2cc(C(=O)NCc3ccc(OC)cc3)ncn2)cc1 [Example 17]	80 nM
O=C(NCc1cccc(Cl)c1)c1cc(C(=O)NCc2cccc(Cl)c2)ncn1 [Example 19]	57 nM
O=C(NCc1ccc2c(c1)OCO2)c1cc(C(=O)NCc2ccc3c(c2)OCO3)ncn1 [Example 20]	14 nM
COc1cccc(CNC(=O)c2cc(C(=O)NCc3cccc(OC)c3)ncn2)c1 [Example 21]	10 nM
O=C(NCc1ccc2c(c1)CCO2)c1cc(C(=O)NCc2ccc3c(c2)CCO3)ncn1 [Example 22]	9 nM
